Assay results as given in patent US20140228543A1, “MODIFIED AND DERIVATIZED ß-GLUCAN COMPOUNDS, COMPOSITIONS, AND METHODS” (Biothera, Inc., priority 2011, published 2014).

Experiments:
human neutrophils [1] = experiment: iC3b deposition on neutrophils (flow cytometry); format: cell-based; conditions: 200 μg/mL hexose concentration, 2 hr, 37° C., 10% serum
Protocol: This ability was evaluated by comparing the levels of iC3b complement fragment detected on human neutrophils with the derivative versus parent β-glucan-bound.
Enriched neutrophils were resuspended at 1×10^6 cells/mL in RPMI 1640 supplemented with 10% serum. The parent or the derivatized glucans at 200, μg/mL hexose concentration were added to neutrophils and incubated in a 37° C., 5% C02 humidified incubator for 2 hr. After incubation, cells were washed twice with FACS buffer (HBSS supplemented with 1% FBS and 0.1% sodium azide) to remove any unbound β-glucan, stained with a neo-epitope specific anti-iC3b Ab and PE-conjugated goat anti-mouse IgG and subsequently analyzed by flow cytometry.
Table 1 below lists the fold change of mean fluorescence intensity (MFI) values of iC3b staining on neutrophils treated with each of the parent or derivatized glucans over that of PBS control-treated cells.

human neutrophils [2] = experiment: β-glucan binding on neutrophils (BfD IV staining, flow cytometry); format: cell-based; conditions: 200 μg/mL hexose concentration, 2 hr, 37° C., 10% serum
Protocol: This ability was evaluated by comparing the levels of neutrophil-bound parent versus the derivatives of β-glucans detected by BfD IV, a monoclonal antibody (MAb) specific for β-1,3/1,6 glucans. […] Table 2 lists the fold change of MFI values of BfD IV staining on neutrophils treated with each of the parent and derivatized glucans over that of PBS control-treated cells.
Enriched neutrophils were resuspended at 1×10^6 cells/mL in RPMI 1640 supplemented with 10% serum. The parent or the derivatized glucans at 200, μg/mL hexose concentration were added to neutrophils and incubated in a 37° C., 5% CO2 humidified incubator for 2 hr. After incubation, cells were washed twice with FACS buffer (HBSS supplemented with 1% FBS and 0.1% sodium azide) to remove any unbound β-glucan, and subsequently treated with Fc block. Post Fc block step, cells were stained with the BfD IV Ab for 30 min at 4° C. and washed twice with cold FACS buffer. Cells were then incubated with FITC-conjugated F(ab′)2 goat anti-mouse IgM for 30 min at 4° C. and washed once with cold FACS buffer before fixing with 1% paraformaldehyde. Events were collected on a LSRII flow cytometer and analysis was performed using FlowJo software.
Table 2 summarizes the fold change of MFI values of BfD IV staining on neutrophils treated with each of the parent, or derivatized β-glucans, over that of PBS control-treated cells.

## 3-Aminopropyl Imidazole MMW Yeast Glucan Analog [BT-1304]
Human neutrophils [1]
  Approximate Fold Increase/Decrease in MFI over Parent Compound (iC3b): 0.6 fold
  MFI(ic3b) compound/MFI(ic3b) PBS: 1.2
Human neutrophils [2]
  Approximate Fold Increase/Decrease in MFI over Parent Compound (BfD IV): 0.5 fold
  MFI(BID IV) compound/MFI(BID IV) PBS: 2.1

## Benzyl Amine LMW Yeast Glucan Analog [BT-1273]
Human neutrophils [1]
  Approximate Fold Increase/Decrease in MFI over Parent Compound (iC3b): 2.2 fold
  MFI(ic3b) compound/MFI(ic3b) PBS: 2.4
Human neutrophils [2]
  Approximate Fold Increase/Decrease in MFI over Parent Compound (BfD IV): 11.3 fold
  MFI(BID IV) compound/MFI(BID IV) PBS: 17.0

## Benzyl Amine Laminarin Analog [BT-1234]
Human neutrophils [1]
  Approximate Fold Increase/Decrease in MFI over Parent Compound (iC3b): 3.9 fold
  MFI(ic3b) compound/MFI(ic3b) PBS: 5.1
Human neutrophils [2]
  Approximate Fold Increase/Decrease in MFI over Parent Compound (BfD IV): 70.0 fold
  MFI(BID IV) compound/MFI(BID IV) PBS: 77

## Benzyl Amine Reducing End MMW Yeast Glucan Analog [BT-1275]
Human neutrophils [1]
  Approximate Fold Increase/Decrease in MFI over Parent Compound (iC3b): 0.9 fold
  MFI(ic3b) compound/MFI(ic3b) PBS: 1.7 ± 0.1
Human neutrophils [2]
  Approximate Fold Increase/Decrease in MFI over Parent Compound (BfD IV): 0.6 fold
  MFI(BID IV) compound/MFI(BID IV) PBS: 2.4 ± 1.2

## Benzyl Amine Scleroglucan Analog [BT-1272]
Human neutrophils [1]
  Approximate Fold Increase/Decrease in MFI over Parent Compound (iC3b): 2.4 fold
  MFI(ic3b) compound/MFI(ic3b) PBS: 3.9
Human neutrophils [2]
  Approximate Fold Increase/Decrease in MFI over Parent Compound (BfD IV): 1.7 fold
  MFI(BID IV) compound/MFI(BID IV) PBS: 3.2

## Dextran [Dextran (control), reference compound]
Human neutrophils [1]
  MFI(ic3b) compound/MFI(ic3b) PBS: 1.1 ± 0.2
Human neutrophils [2]
  MFI(BID IV) compound/MFI(BID IV) PBS: 1.0

## Galactose Propyl Amine Dextran Analog [BT-1286]
Human neutrophils [1]
  Approximate Fold Increase/Decrease in MFI over Parent Compound (iC3b): 0.9 fold
  MFI(ic3b) compound/MFI(ic3b) PBS: 1.0
Human neutrophils [2]
  Approximate Fold Increase/Decrease in MFI over Parent Compound (BfD IV): 1.0 fold
  MFI(BID IV) compound/MFI(BID IV) PBS: 1.0

## Galactose Propyl Amine LMW Yeast Glucan Analog [BT-1277]
Human neutrophils [1]
  Approximate Fold Increase/Decrease in MFI over Parent Compound (iC3b): 0.9 fold
  MFI(ic3b) compound/MFI(ic3b) PBS: 1.0
Human neutrophils [2]
  Approximate Fold Increase/Decrease in MFI over Parent Compound (BfD IV): 0.9 fold
  MFI(BID IV) compound/MFI(BID IV) PBS: 1.3

## Galactose Propyl Amine MMW Yeast Glucan Analog [BT-1245]
Human neutrophils [1]
  Approximate Fold Increase/Decrease in MFI over Parent Compound (iC3b): 2.3 fold
  MFI(ic3b) compound/MFI(ic3b) PBS: 4.5 ± 1.2
Human neutrophils [2]
  Approximate Fold Increase/Decrease in MFI over Parent Compound (BfD IV): 1.6 fold
  MFI(BID IV) compound/MFI(BID IV) PBS: 6.6 ± 3.78

## Lactose Propyl Amine MMW Yeast Glucan Analog [BT-1244]
Human neutrophils [1]
  Approximate Fold Increase/Decrease in MFI over Parent Compound (iC3b): 1.5 fold
  MFI(ic3b) compound/MFI(ic3b) PBS: 3.0 ± 0.1
Human neutrophils [2]
  Approximate Fold Increase/Decrease in MFI over Parent Compound (BfD IV): 1.0 fold
  MFI(BID IV) compound/MFI(BID IV) PBS: 4.0 ± 1.9

## Laminarin [Laminarin (parent), reference compound]
Human neutrophils [1]
  MFI(ic3b) compound/MFI(ic3b) PBS: 1.3
Human neutrophils [2]
  MFI(BID IV) compound/MFI(BID IV) PBS: 1.1

## Maltose Propyl Amine MMW Yeast Glucan Analog [BT-1248]
Human neutrophils [1]
  Approximate Fold Increase/Decrease in MFI over Parent Compound (iC3b): 1.8 fold
  MFI(ic3b) compound/MFI(ic3b) PBS: 3.5 ± 0.4
Human neutrophils [2]
  Approximate Fold Increase/Decrease in MFI over Parent Compound (BfD IV): 1.1 fold
  MFI(BID IV) compound/MFI(BID IV) PBS: 4.7 ± 3.8

## Mannose Propyl Amine Dextran Analog [BT-1287]
Human neutrophils [1]
  Approximate Fold Increase/Decrease in MFI over Parent Compound (iC3b): 0.9 fold
  MFI(ic3b) compound/MFI(ic3b) PBS: 1.0
Human neutrophils [2]
  Approximate Fold Increase/Decrease in MFI over Parent Compound (BfD IV): 1.0 fold
  MFI(BID IV) compound/MFI(BID IV) PBS: 1.0

## Mannose Propyl Amine LMW Yeast Glucan Analog [BT-1278]
Human neutrophils [1]
  Approximate Fold Increase/Decrease in MFI over Parent Compound (iC3b): 0.9 fold
  MFI(ic3b) compound/MFI(ic3b) PBS: 1.0
Human neutrophils [2]
  Approximate Fold Increase/Decrease in MFI over Parent Compound (BfD IV): 0.9 fold
  MFI(BID IV) compound/MFI(BID IV) PBS: 1.3

## Mannose Propyl Amine Laminarin Analog [BT-1281]
Human neutrophils [1]
  Approximate Fold Increase/Decrease in MFI over Parent Compound (iC3b): 0.8 fold
  MFI(ic3b) compound/MFI(ic3b) PBS: 1.1
Human neutrophils [2]
  Approximate Fold Increase/Decrease in MFI over Parent Compound (BfD IV): 1.1 fold
  MFI(BID IV) compound/MFI(BID IV) PBS: 1.2
